In assay [1] the test system is Trypanosoma brucei. Put plainly: Inhibition of N-terminal His6-tagged Trypanosoma brucei CTPS assessed as Gln-dependent CTP formation at by continuous spectrophotometric assay.
Assay [2] has as its system Escherichia coli. Put plainly: Inhibition of Escherichia coli CTPS assessed as Gln-dependent CTP formation at > 0.15 mM by continuous spectrophotometric assay.
Assay [3] can be described thus: Inhibition of N-terminal His6-tagged Trypanosoma brucei CTPS assessed as NH3-dependent CTP formation by continuous spectrophotometric assay.
In assay [4] the test system is Trypanosoma brucei. The assay is described as follows: Inhibition of N-terminal His6-tagged Trypanosoma brucei CTPS assessed as Gln-dependent CTP formation at > 0.2 mM by continuous spectrophotometric assay.
Assay [5] concerns Trypanosoma brucei. The assay is described as follows: Activation of N-terminal His6-tagged Trypanosoma brucei CTPS assessed as Gln-dependent CTP formation by continuous spectrophotometric assay.
Assay [6] has as its system Trypanosoma brucei. Put plainly: Activation of N-terminal His6-tagged Trypanosoma brucei CTPS assessed as Gln-dependent CTP formation at <0.2 mM by continuous spectrophotometric assay.
In assay [7] the test system is Escherichia coli. The assay is described as follows: Activation of Escherichia coli CTPS assessed as Gln-dependent CTP formation at < 0.15 mM by continuous spectrophotometric assay.
Assay [8] concerns Trypanosoma brucei.
Description: Ratio of Kcat to Km for N-terminal His6-tagged Trypanosoma brucei CTPS assessed as conversion of UTP to CTP by continuous spectrophotometric assay
Assay [9] deals with Trypanosoma brucei. This is another data set of the same source.
In assay [10] the test system is Escherichia coli.
Assay [11] relates to Escherichia coli. The source holds these as a separate data set.
Description: Ratio of Kcat to Km for Escherichia coli CTPS assessed as conversion of UTP to CTP by continuous spectrophotometric assay
Assay [12] in a line: Activity of Escherichia coli CTPS assessed as conversion of UTP to CTP at pH 7.3 by continuous spectrophotometric assay.
For assay [13], the system named is Trypanosoma brucei. Conditions: 5.67 mM.
Description: Inhibition of N-terminal His6-tagged Trypanosoma brucei CTPS assessed as conversion of UTP to CTP at 5.67 mM by continuous spectrophotometric assay
Assay [14] has as its system Trypanosoma brucei. Conditions: 494.32 mM.
Description: Inhibition of N-terminal His6-tagged Trypanosoma brucei CTPS assessed as conversion of UTP to CTP at 494.32 mM at pH 7.3 by continuous spectrophotometric assay
Assay [15] can be described thus: Activity of N-terminal His6-tagged Trypanosoma brucei CTPS assessed as conversion of UTP to CTP at pH 7.3 by continuous spectrophotometric assay.

The text below walks through data of ChEMBL document CHEMBL1817579, “Activation and inhibition of CTP synthase from Trypanosoma brucei, the causative agent of African sleeping sickness” (Bioorg Med Chem Lett, 2011).

Active and inactive are the calls of the source. The calls are words filed in the database; no cut-off is given here.

Take `Nc1nc(=O)c2ncn([C@@H]3O[C@H](COP(=O)(O)OP(=O)(O)OP(=O)(O)O)[C@@H](O)C3O)c2[nH]1` (single isomer, unassigned) [GTP]: in assay [1], the inhibition result was “Active”. The inhibition result in [2] is “Active”. Also, in assay [3], the IC50 worked out at 460 µM and the Ki was 272 µM. Moreover, the inhibition entry in assay [4] is “Active”. Besides, in assay [5], the KA amounted to 57 µM and the Kact worked out at 0.87 s⁻¹. The result in assay [6] was Active. Moreover, the kcat in [7] was determined as 10.6 s⁻¹.
Regarding `N` [AMMONIA SOLUTION, STRONG], the kcat/Km is 727 M⁻¹ s⁻¹ in [8] and 4 ×10³ /M/s in assay [11]. In addition, the Ks came to 2.2 mM in assay [9] and 1.1 mM in assay [10]. In addition, the kcat in assay [9] was 1.6 s⁻¹; in [10] it was 4.4 s⁻¹. Further, the Ki in [12] is 1400 µM; in [15] it was 5700 µM. Also, the inhibition result in assay [13] and in assay [14] was “Active” in each case.
Consider `Cn1c(=O)c2c(ncn2C)n(C)c1=O` [CAFFEINE], for which, in [3], the IC50 is 480 µM.
Still for that read-out and setting: under `Nc1nc2c(ncn2[C@@H]2O[C@H](CO)[C@@H](O)[C@H]2O)c(=O)[nH]1` [GUANOSINE] stands 380 µM; under `Oc1nc(O)c2nc(O)[nH]c2n1` [URIC ACID], 100 µM.

What is called IC50 is the concentration that gives 50% inhibition. The Ki is a dissociation constant, usually derived from enzyme kinetics or from competition with a known ligand. As a reminder, the kcat is the maximal rate divided by the concentration of active sites.
